In ChEMBL document CHEMBL3351667, “A chemical tuned strategy to develop novel irreversible EGFR-TK inhibitors with improved safety and pharmacokinetic profiles” (J Med Chem, 2014):

Assays:
[1] = target: Epidermal growth factor receptor (Homo sapiens, UniProt P00533);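 further: inhibition of wild-type EGFR read out by HTRF, with a 5 min incubation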
Description: Inhibition of wild type EGFR (unknown origin) incubated for 5 mins by HTRF assay

[2] = target: Epidermal growth factor receptor (Homo sapiens, UniProt P00533, T790M); type: protein assay
[3] = target: Platelet-derived growth factor receptor alpha (Homo sapiens, UniProt P16234); assay: Inhibition of wild type PDGFRalpha (unknown origin) incubated for 5 mins by HTRF assay
[4] = target: Platelet-derived growth factor receptor beta (Homo sapiens, UniProt P09619); assay: Inhibition of wild type PDGFRbeta (unknown origin) incubated for 5 mins by HTRF assay
Chain of Platelet-derived growth factor receptor beta (P09619 whole entry): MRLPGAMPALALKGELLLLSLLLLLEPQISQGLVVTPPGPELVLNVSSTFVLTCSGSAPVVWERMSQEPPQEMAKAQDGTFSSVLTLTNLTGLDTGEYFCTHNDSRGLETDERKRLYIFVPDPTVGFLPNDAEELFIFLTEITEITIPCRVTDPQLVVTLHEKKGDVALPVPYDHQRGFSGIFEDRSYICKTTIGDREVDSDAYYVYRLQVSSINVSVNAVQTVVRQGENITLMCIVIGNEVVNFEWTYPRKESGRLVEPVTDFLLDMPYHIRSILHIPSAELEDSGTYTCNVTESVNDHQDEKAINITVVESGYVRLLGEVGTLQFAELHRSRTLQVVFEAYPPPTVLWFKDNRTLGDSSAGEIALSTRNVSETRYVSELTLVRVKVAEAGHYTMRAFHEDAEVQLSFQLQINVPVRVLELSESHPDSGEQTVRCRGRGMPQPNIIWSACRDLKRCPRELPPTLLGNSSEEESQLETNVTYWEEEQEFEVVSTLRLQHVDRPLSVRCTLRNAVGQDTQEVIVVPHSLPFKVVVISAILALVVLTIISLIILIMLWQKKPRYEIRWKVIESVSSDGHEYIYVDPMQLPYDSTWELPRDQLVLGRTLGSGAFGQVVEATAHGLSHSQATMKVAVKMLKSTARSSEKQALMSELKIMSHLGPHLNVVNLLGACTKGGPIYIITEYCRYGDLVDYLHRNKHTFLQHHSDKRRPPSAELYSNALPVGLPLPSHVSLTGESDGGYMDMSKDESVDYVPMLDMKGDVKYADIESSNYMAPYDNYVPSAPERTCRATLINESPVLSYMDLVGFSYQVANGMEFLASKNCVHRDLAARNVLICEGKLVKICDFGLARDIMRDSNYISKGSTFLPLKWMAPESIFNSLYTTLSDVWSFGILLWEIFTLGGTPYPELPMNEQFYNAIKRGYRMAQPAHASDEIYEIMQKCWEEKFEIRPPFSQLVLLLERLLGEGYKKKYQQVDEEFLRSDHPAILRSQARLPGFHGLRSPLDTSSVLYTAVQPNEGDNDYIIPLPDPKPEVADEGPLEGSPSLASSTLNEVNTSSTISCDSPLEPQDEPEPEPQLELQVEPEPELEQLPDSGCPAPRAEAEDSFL

[5] = target: Tyrosine-protein kinase JAK2 (Homo sapiens, UniProt O60674); assay: Inhibition of wild type JAK2 (unknown origin) incubated for 5 mins by HTRF assay
Chain of Tyrosine-protein kinase JAK2 (O60674 whole entry): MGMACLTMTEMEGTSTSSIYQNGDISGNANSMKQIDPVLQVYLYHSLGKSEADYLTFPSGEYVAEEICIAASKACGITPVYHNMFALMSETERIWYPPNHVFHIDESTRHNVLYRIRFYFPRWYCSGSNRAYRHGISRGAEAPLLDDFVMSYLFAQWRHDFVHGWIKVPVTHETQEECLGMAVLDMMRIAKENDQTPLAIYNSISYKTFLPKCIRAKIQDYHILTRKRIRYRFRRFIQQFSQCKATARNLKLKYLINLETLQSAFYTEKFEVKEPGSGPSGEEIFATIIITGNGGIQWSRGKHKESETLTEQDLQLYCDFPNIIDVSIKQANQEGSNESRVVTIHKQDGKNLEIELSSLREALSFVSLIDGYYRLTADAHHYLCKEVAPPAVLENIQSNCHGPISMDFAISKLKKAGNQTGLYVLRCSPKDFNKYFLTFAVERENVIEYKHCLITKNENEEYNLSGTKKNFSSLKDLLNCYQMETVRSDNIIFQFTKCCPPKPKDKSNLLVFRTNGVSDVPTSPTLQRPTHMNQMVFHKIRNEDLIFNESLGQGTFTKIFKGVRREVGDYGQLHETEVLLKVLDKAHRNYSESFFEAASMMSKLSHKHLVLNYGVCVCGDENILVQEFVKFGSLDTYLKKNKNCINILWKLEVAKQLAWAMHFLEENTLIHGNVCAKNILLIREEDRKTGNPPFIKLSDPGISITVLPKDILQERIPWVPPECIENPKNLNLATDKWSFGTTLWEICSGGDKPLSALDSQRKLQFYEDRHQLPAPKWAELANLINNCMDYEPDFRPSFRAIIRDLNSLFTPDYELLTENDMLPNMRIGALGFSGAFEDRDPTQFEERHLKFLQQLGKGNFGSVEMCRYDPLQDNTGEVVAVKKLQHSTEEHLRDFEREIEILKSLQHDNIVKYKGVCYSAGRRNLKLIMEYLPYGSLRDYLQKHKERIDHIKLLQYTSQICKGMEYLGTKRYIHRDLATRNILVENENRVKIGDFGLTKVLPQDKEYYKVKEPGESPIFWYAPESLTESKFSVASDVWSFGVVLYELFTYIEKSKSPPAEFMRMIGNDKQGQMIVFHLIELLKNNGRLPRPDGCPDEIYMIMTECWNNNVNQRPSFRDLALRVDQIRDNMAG

[6] = target: Tyrosine-protein kinase SYK (Homo sapiens, UniProt P43405); assay: Inhibition of wild type SYK (unknown origin) incubated for 5 mins by HTRF assay
[7] = target: ALK tyrosine kinase receptor (Homo sapiens, UniProt Q9UM73); assay: Inhibition of wild type ALK (unknown origin) incubated for 5 mins by HTRF assay
[8] = target: RAC-alpha serine/threonine-protein kinase (Homo sapiens, UniProt P31749); assay: Inhibition of wild type AKT1 (unknown origin) incubated for 5 mins by HTRF assay
[9] = target: RAC-beta serine/threonine-protein kinase (Homo sapiens, UniProt P31751); assay: Inhibition of wild type AKT2 (unknown origin) incubated for 5 mins by HTRF assay
[10] = target: Hepatocyte growth factor receptor (Homo sapiens, UniProt P08581); assay: Inhibition of wild type c-Met (unknown origin) incubated for 5 mins by HTRF assay
[11] = target: Fibroblast growth factor receptor 2 (Homo sapiens, UniProt P21802); assay: Inhibition of wild type FGFR2 (unknown origin) incubated for 5 mins by HTRF assay
[12] = target: Receptor-type tyrosine-protein kinase FLT3 (Homo sapiens, UniProt P36888); assay: Inhibition of wild type FLT3 (unknown origin) incubated for 5 mins by HTRF assay
Chain of Receptor-type tyrosine-protein kinase FLT3 (P36888 whole entry): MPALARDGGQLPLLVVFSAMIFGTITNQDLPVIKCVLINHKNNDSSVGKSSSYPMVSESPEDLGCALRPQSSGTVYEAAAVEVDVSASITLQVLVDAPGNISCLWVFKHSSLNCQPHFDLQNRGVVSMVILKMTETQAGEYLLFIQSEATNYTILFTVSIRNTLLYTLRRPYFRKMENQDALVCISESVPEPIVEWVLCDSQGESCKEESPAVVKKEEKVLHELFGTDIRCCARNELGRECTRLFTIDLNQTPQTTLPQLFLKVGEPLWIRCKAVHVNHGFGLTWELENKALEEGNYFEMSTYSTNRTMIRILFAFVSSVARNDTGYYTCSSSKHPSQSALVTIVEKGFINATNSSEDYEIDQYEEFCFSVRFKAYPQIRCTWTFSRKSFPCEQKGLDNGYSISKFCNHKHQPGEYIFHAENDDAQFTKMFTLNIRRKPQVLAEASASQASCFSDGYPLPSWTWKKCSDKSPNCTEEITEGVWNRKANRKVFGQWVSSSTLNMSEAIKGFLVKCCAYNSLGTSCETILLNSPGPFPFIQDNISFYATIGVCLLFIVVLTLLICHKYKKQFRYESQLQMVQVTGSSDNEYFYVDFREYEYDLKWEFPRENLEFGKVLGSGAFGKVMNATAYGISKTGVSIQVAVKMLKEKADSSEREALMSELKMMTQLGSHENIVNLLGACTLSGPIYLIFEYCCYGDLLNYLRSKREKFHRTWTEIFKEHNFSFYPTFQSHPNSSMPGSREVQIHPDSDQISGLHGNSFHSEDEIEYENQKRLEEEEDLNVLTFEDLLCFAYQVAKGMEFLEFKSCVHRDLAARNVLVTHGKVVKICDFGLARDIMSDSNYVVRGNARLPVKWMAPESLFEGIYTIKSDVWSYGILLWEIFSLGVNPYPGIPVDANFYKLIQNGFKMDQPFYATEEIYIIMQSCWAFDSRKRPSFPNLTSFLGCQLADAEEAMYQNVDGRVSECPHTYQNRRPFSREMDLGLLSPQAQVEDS

[13] = target: Tyrosine-protein kinase ABL1 (Homo sapiens, UniProt P00519); assay: Inhibition of wild type ABL (unknown origin) incubated for 5 mins by HTRF assay
[14] = target: Proto-oncogene tyrosine-protein kinase Src (Homo sapiens, UniProt P12931); assay: Inhibition of wild type SRC (unknown origin) incubated for 5 mins by HTRF assay
[15] = Intrinsic clearance in human liver microsomes assessed per mg protein at 1 uM in presence of NADPH after 0.5 to 30 mins by LC/MS/MS method; type: ADME; conditions: read-out: CLH
[16] = Intrinsic clearance in rat liver microsomes assessed per mg protein at 1 uM in presence of NADPH after 0.5 to 30 mins by LC/MS/MS method; type: ADME; conditions: read-out: CLH
[17] = Intrinsic clearance in mouse liver microsomes assessed per mg protein at 1 uM in presence of NADPH after 0.5 to 30 mins by LC/MS/MS method; type: ADME; conditions: read-out: CLH
[18] = Intrinsic clearance in dog liver microsomes assessed per mg protein at 1 uM in presence of NADPH after 0.5 to 30 mins by LC/MS/MS method; type: ADME, Canis lupus familiaris; conditions: read-out: CLH
[19] = Intrinsic clearance in monkey liver microsomes assessed per mg protein at 1 uM in presence of NADPH after 0.5 to 30 mins by LC/MS/MS method; type: ADME, Macaca mulatta; conditions: rhesus monkey, read-out: CLH
Cytochrome P450 3A4 = Cytochrome P450 3A4 (Homo sapiens, UniProt P08684); assay: Inhibition of CYP3A4 in human hepatic microsomes after 20 mins by LC/MS/MS method; type: ADME, Liver
Chain of Cytochrome P450 3A4 (P08684 whole entry): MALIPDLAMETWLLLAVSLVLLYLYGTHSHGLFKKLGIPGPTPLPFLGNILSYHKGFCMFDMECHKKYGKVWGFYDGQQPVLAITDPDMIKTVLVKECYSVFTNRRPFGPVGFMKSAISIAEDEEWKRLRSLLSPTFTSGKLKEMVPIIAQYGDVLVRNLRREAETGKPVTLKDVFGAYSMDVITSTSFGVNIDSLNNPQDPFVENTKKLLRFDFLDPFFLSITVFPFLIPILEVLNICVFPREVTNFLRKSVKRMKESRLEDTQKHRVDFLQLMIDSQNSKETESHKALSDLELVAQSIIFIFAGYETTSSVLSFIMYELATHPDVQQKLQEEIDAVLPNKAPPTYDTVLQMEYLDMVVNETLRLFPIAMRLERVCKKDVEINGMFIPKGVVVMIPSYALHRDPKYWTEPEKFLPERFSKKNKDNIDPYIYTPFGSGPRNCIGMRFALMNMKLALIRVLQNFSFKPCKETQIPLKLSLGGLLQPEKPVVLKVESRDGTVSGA

Cytochrome P450 2D6 = Cytochrome P450 2D6 (Homo sapiens, UniProt P10635); assay: Inhibition of CYP2D6 in human hepatic microsomes after 20 mins by LC/MS/MS method; type: ADME, Liver
Cytochrome P450 2C9 = Cytochrome P450 2C9 (Homo sapiens, UniProt P11712); assay: Inhibition of CYP2C9 in human hepatic microsomes after 20 mins by LC/MS/MS method; type: ADME, Liver
Cytochrome P450 1A2 = target: T1, Cytochrome P450 1A2 (Homo sapiens, UniProt P05177); assay: Inhibition of CYP1A2 in human hepatic microsomes after 20 mins by LC/MS/MS method; type: ADME, Liver
T1 sequence (P05177 whole entry): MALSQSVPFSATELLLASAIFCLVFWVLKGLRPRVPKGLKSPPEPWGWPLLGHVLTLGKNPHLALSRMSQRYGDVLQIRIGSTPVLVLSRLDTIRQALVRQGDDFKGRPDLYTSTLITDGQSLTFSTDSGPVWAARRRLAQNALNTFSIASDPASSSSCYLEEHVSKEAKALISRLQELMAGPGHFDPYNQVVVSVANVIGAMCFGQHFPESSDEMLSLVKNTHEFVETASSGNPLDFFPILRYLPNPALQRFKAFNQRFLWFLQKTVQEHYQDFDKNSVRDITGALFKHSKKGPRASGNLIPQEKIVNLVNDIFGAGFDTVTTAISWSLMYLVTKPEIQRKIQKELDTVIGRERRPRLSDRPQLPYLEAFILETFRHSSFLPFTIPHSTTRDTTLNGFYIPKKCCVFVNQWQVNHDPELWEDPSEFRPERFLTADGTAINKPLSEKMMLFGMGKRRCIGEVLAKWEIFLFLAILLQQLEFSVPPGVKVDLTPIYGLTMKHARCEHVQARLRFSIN

Cytochrome P450 2C19 = Cytochrome P450 2C19 (Homo sapiens, UniProt P33261); assay: Inhibition of CYP2C19 in human hepatic microsomes after 20 mins by LC/MS/MS method; type: ADME, Liver
[20] = AUC (0 to infinity) in BALB/c mouse at 10 mg/kg, po after 24 hrs by LC/MS/MS method; type: ADME, organism-based, Plasma; design: dose 10 mg/kg, route oral, time infinity; conditions: BALB/c, plasma
[21] = Cmax in BALB/c mouse at 10 mg/kg, po after 24 hrs by LC/MS/MS method; type: ADME, organism-based; design: dose 10 mg/kg, route oral; conditions: in vivo
[22] = Apparent clearance in BALB/c mouse at 10 mg/kg, po after 24 hrs by LC/MS/MS method; type: ADME, organism-based; design: dose 10 mg/kg, route oral; conditions: BALB/c, in vivo, read-out: CL(app)
Mus musculus = assay: Apparent volume of distribution in BALB/c mouse at 10 mg/kg, po after 24 hrs by LC/MS/MS method; type: ADME, organism-based; design: dose 10 mg/kg, route oral; conditions: in vivo
[23] = Oral bioavailability in BALB/c mouse at 10 mg/kg after 24 hrs by LC/MS/MS method; type: ADME, organism-based; conditions: in vivo
hERG (KCNH2) [24] = target: T2, hERG (KCNH2) (Homo sapiens, UniProt Q12809); assay: Inhibition of human ERG assessed as reduction in channel currents at 1 uM
T2 sequence (Q12809 whole entry): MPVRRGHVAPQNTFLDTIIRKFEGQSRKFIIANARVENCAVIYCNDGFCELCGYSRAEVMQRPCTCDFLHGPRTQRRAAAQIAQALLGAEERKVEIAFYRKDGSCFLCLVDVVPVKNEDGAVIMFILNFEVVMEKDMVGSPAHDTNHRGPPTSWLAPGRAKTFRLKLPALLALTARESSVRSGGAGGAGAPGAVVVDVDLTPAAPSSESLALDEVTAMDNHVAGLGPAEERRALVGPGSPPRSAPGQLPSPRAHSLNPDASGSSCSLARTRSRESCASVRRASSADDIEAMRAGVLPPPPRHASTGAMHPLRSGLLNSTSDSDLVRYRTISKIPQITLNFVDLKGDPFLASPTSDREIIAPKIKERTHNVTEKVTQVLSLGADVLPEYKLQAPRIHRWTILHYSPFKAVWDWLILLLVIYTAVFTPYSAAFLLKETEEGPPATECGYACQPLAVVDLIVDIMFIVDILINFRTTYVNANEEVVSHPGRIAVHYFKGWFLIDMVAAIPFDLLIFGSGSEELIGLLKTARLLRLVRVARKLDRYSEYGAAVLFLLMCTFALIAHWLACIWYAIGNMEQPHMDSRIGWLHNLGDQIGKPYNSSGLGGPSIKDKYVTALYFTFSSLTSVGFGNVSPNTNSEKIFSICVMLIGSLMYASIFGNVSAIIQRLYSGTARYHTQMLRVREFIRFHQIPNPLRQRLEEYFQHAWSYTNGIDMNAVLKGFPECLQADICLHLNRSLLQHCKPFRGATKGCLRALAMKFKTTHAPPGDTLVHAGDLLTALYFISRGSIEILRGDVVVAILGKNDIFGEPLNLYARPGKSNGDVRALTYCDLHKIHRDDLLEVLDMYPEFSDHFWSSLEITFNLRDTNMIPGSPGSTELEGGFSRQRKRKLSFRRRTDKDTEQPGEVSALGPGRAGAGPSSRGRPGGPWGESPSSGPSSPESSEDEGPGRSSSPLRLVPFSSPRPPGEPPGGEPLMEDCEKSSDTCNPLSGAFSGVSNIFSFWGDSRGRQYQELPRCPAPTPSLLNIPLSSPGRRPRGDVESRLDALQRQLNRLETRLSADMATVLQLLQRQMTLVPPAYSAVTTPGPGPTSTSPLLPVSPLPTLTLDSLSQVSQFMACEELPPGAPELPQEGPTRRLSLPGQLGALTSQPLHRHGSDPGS

hERG (KCNH2) [25] = target: T2, hERG (KCNH2); assay: Inhibition of human ERG assessed as reduction in channel currents at 10 uM

COc1cc2ncnc(Nc3ccc(F)c(Cl)c3)c2cc1NC(=O)/C(F)=C/CN(C)C
IC50 [1]: 0.0002 µM | IC50 [2]: 0.00667 µM | IC50 [3]: 3.6 µM | IC50 [4]: 2.1 µM | IC50 [5]: > 10 µM | IC50 [6]: > 10 µM | IC50 [7]: > 10 µM | IC50 [8]: > 10 µM | IC50 [9]: > 10 µM | IC50 [10]: > 10 µM | IC50 [11]: > 10 µM | IC50 [12]: 6.81 µM | IC50 [13]: 2.26 µM | IC50 [14]: 1.73 µM | microsomal CLint at 1 µM [15]: 14 µL/min/mg | microsomal CLint at 1 µM [16]: 18 µL/min/mg | microsomal CLint at 1 µM [17]: 45 µL/min/mg | microsomal CLint at 1 µM [18]: 194 µL/min/mg | microsomal CLint at 1 µM [19]: 128 µL/min/mg | IC50 (Cytochrome P450 3A4): > 10 µM | IC50 (Cytochrome P450 2D6): > 10 µM | IC50 (Cytochrome P450 2C9): > 10 µM | IC50 (Cytochrome P450 1A2): > 10 µM | IC50 (Cytochrome P450 2C19): > 10 µM | AUC(0-inf) [20]: 7.67 µM·h | Cmax [21]: 790 nM | CL/F [22]: 50 mL/min/kg | Vz (Mus musculus): 14 L/kg | bioavailability [23]: 98.5% | inhibition at 1 µM (hERG (KCNH2) [24]): 2.55% | inhibition at 10 µM (hERG (KCNH2) [25]): 18.4%
